Data: US20090298878A1, “OXIME COMPOUNDS AND THE USE THEREOF” (priority 2006, published 2009)

The molecules below were run against T1, N-type calcium channel (NTCC) (Homo sapiens, UniProt Q00975) (assay: FLIPR calcium mobilization assay for N-type calcium channel (differentiated IMR32 cells)). Conditions: about 1.0 μM or less; calcium mobilization and/or electrophysiological assay.
T1 construct: host or cells: IMR32 cells differentiated with dibutyryl cAMP and bromodeoxyuridine
Type: cell-based
Method in brief: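 Human IMR32 cells differentiated 8 days (1 mM dibutyryl cAMP, 2.5 μM BrdU), pre-stimulated 1 h with 90 mM KCl plus compound (~846 pM–17 μM) and 5 μM nitrendipine, Fluo-4 loaded. FLIPR read basal fluorescence 315 s, then 90 mM KCl agonist added and fluorescence recorded 45 s; non-linear regression.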

T1 sequence (Q00975 whole entry): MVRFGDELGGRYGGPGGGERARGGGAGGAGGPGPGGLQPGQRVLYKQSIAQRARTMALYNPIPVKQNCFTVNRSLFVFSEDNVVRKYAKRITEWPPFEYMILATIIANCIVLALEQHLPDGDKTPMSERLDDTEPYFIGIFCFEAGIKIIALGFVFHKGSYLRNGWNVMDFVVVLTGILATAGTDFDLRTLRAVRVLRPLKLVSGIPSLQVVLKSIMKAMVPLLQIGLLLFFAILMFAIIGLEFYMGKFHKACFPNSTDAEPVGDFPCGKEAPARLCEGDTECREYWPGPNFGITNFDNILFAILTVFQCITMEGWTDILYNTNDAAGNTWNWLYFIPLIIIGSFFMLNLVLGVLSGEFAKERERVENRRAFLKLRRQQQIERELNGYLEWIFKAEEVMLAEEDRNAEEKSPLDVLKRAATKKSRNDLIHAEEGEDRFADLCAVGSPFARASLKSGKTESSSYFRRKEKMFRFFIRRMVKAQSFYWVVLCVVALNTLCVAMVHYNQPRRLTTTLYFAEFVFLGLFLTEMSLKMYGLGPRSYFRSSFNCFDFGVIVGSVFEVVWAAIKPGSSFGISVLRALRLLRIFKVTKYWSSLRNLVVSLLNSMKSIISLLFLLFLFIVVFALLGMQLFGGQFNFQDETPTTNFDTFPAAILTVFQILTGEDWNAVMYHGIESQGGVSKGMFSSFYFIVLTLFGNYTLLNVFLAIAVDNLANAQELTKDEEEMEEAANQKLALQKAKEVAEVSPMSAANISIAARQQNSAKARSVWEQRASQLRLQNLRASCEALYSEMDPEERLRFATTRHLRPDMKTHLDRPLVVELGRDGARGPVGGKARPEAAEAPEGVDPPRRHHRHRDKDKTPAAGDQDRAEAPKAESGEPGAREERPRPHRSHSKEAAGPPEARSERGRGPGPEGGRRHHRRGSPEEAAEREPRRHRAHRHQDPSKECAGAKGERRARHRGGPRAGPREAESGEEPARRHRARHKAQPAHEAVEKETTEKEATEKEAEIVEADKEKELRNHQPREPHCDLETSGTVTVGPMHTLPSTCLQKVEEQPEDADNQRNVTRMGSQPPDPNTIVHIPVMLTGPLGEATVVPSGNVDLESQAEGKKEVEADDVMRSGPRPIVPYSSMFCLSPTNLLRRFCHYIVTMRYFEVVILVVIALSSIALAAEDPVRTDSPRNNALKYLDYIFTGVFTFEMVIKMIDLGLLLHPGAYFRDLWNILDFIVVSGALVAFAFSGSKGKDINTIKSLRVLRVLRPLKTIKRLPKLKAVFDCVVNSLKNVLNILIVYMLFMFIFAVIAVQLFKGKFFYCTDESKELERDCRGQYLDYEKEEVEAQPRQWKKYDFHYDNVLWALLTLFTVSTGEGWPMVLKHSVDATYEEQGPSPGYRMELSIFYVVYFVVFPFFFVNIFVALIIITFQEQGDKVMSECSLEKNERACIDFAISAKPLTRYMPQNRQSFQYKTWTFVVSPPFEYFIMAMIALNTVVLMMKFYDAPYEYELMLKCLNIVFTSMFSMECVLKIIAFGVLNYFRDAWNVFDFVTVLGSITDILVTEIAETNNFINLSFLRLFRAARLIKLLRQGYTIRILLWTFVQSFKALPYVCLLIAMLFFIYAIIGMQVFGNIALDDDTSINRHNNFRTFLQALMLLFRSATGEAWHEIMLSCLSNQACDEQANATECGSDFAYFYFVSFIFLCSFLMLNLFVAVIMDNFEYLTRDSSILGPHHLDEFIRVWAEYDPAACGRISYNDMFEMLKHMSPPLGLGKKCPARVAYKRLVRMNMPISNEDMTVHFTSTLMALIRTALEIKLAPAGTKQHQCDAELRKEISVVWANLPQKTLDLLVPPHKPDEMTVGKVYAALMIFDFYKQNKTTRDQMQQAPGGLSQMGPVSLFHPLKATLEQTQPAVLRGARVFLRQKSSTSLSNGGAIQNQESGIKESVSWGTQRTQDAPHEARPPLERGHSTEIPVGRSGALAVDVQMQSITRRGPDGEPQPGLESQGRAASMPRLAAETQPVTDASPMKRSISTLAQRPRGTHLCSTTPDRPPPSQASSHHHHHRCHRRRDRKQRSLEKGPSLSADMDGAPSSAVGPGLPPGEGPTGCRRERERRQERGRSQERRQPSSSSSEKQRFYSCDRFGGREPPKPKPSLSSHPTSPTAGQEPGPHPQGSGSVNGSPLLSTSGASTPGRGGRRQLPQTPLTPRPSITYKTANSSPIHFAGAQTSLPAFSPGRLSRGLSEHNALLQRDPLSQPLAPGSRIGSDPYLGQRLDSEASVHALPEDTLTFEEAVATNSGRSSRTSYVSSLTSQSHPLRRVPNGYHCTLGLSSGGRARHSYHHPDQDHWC

Q: `O=S(=O)(c1ccc(OC(F)F)cc1)N1CCC(=NOC(c2ccc(F)cc2)c2ccc(F)cc2)CC1` [Example 232, 1-(4-(Difluoromethoxy)phenylsulfonyl)piperidin-4-one O-bis(4-fluorophenyl)methyl oxime] was tested. Which IC50 did it give?
A: ≤ 1000 nM

Q: For `CN1CCOc2cc(S(=O)(=O)N3CCC(=NOC(c4ccc(F)cc4)c4ccc(F)cc4)CC3)ccc21` [Example 237, 1-(4-Methyl-3,4-dihydro-2H-benzo[b][1,4]oxazin-7-ylsulfonyl)piperidin-4-one O-bis(4-fluorophenyl)methyl oxime], which IC50 is on record?
A: ≤ 1000 nM

Q: With `O=S(=O)(c1ccc(Cl)cc1Cl)N1CCC(=NOC(c2ccc(F)cc2)c2ccc(F)cc2)CC1` [Example 228, 1-(2,4-Dichlorophenylsulfonyl)piperidin-4-one O-bis(4-fluorophenyl)methyl oxime] as the molecule, how does the IC50 read?
A: ≤ 1000 nM

Q: With `O=S(=O)(c1ccc(OC(F)(F)F)cc1)N1CCC(=NOC(c2ccc(F)cc2)c2ccc(F)cc2)CC1` [Example 119, 1-(4-Trifluoromethoxybenzenesulfonyl)piperidin-4-one O-[bis(4-fluorophenyl)methyl]oxime] as the molecule, how does the IC50 read?
A: ≤ 1000 nM

Q: How did the IC50 turn out when `O=S(=O)(c1ccc(OC(F)(F)F)cc1)N1CCC(=NOCc2ccccc2-c2ccccc2)CC1` [Example 311, 1-(4-(Trifluoromethoxy)phenylsulfonyl)piperidin-4-one O-biphenyl-2-ylmethyl oxime] was run?
A: ≤ 1000 nM

Q: With `O=S(=O)(c1cccc(C(F)(F)F)c1)N1CCC(=NOC2CCCCC2)CC1` [Example 309, 1-(3-(Trifluoromethyl)phenylsulfonyl)piperidin-4-one O-cyclohexyl oxime] as the molecule, how does the IC50 read?
A: ≤ 1000 nM

Q: With `N#Cc1cccc(CON=C2CCN(S(=O)(=O)c3ccc(OCCF)cc3)CC2)c1` [Example 281, 3-((1-(4-(2-Fluoroethoxy)phenylsulfonyl)piperidin-4-ylideneaminooxy)methyl)benzonitrile] as the molecule, how does the IC50 read?
A: ≤ 1000 nM

Q: How did the IC50 turn out when `COCCOc1ccc(S(=O)(=O)N2CCC(=NOCc3cccc(C(F)(F)F)c3)CC2)cc1` [Example 94, 1-[4-(2-Methoxyethoxy)benzenesulfonyl]piperidin-4-one O-(3-trifluoromethylbenzyl)oxime] was run?
A: ≤ 1000 nM

Q: Which IC50 does the source give for `N#Cc1cccc(C(CO)ON=C2CCN(S(=O)(=O)c3ccc(OC(F)(F)F)cc3)CC2)c1` (stereo not shown) [Example 191, 3-(2-Hydroxy-1-(1-(4-(trifluoromethoxy)phenylsulfonyl)piperidin-4-ylideneaminooxy)ethyl)benzonitrile] here?
A: ≤ 1000 nM

Q: With `N#Cc1cccc(CON=C2CCN(S(=O)(=O)c3ccc(OC(F)(F)F)cc3)CC2)n1` [Example 173, 6-((1-(4-(Trifluoromethoxy)phenylsulfonyl)piperidin-4-ylideneaminooxy)methyl)picolinonitrile] as the molecule, how does the IC50 read?
A: ≤ 1000 nM

Q: Which IC50 does the source give for `CCCCc1ccc(S(=O)(=O)N2CCC(=NOCc3cccc(Cl)c3)CC2)cc1` [Example 65, 1-(4-Butylbenzenesulfonyl)piperidin-4-one O-(3-chlorobenzyl)oxime] here?
A: ≤ 1000 nM

Q: How did the IC50 turn out when `N#Cc1cccc(CON=C2CCN(S(=O)(=O)c3ccc(C(F)(F)F)cc3)CC2)c1` [Example 280, 3-((1-(4-(Trifluoromethyl)phenylsulfonyl)piperidin-4-ylideneaminooxy)methyl)benzonitrile] was run?
A: ≤ 1000 nM

Q: Which IC50 does the source give for `N#Cc1cccc(CON=C2CCN(S(=O)(=O)c3ccc(F)cc3)CC2)c1` [Example 196] here?
A: ≤ 1000 nM

Q: `N#Cc1cccc(C(ON=C2CCN(S(=O)(=O)c3ccc(OC(F)(F)F)cc3)CC2)c2ccncc2)c1` (stereo not shown) [Example 269, 3-(Pyridin-4-yl(1-(4-(trifluoromethoxy)phenylsulfonyl)piperidin-4-ylideneaminooxy)methyl)benzonitrile] was tested. Which IC50 did it give?
A: ≤ 1000 nM

Q: `O=S(=O)(c1ccc(Oc2ccccc2)nc1)N1CCC(=NOCc2cccc(C(F)(F)F)c2)CC1` [Example 101, 1-(6-Phenoxypyridine-3-sulfonyl)piperidin-4-one O-(3-trifluoromethylbenzyl)oxime] was tested. Which IC50 did it give?
A: ≤ 1000 nM

Q: With `N#Cc1cccc(CON=C2CCN(S(=O)(=O)c3ccc(OC(F)(F)F)cc3)CC2)c1` [Example 121, 3-[1-(4-Trifluoromethoxybenzenesulfonyl)piperidin-4-ylideneaminooxymethyl]benzonitrile] as the molecule, how does the IC50 read?
A: ≤ 1000 nM

Q: `CCCCc1ccc(S(=O)(=O)N2CCC(=NOCc3cccc(OC(F)(F)F)c3)CC2)cc1` [Example 79, 1-(4-Butylbenzenesulfonyl)piperidin-4-one O-(3-trifluoromethoxybenzyl)oxime] was tested. Which IC50 did it give?
A: ≤ 1000 nM

Q: `CCCCc1ccc(S(=O)(=O)N2CCC(=NOCc3ccnc(Cl)c3)CC2)cc1` [Example 69, 1-(4-Butylbenzenesulfonyl)piperidin-4-one O-(2-chloropyridin-4-ylmethyl)oxime] was tested. Which IC50 did it give?
A: ≤ 1000 nM

Q: For `O=S(=O)(c1cccc(C(F)(F)F)c1)N1CCC(=NOCCc2ccccc2)CC1` [Example 310, 1-(3-(Trifluoromethyl)phenylsulfonyl)piperidin-4-one O-phenethyl oxime], which IC50 is on record?
A: ≤ 1000 nM

Q: `N#Cc1cccc(CON=C2CCN(S(=O)(=O)c3cccc(C#N)c3)CC2)c1` [Example 282, 3-(4-(3-Cyanobenzyloxyimino)piperidin-1-ylsulfonyl)benzonitrile] was tested. Which IC50 did it give?
A: ≤ 1000 nM

Q: Which IC50 does the source give for `N#Cc1ccnc(CON=C2CCN(S(=O)(=O)c3ccc(OC(F)(F)F)cc3)CC2)c1` [Example 178, 2-((1-(4-(trifluoromethoxy)phenylsulfonyl)piperidin-4-ylideneaminooxy)methyl)isonicotinonitrile] here?
A: ≤ 1000 nM

Q: Which IC50 does the source give for `N#Cc1cccc(C(ON=C2CCN(S(=O)(=O)c3ccc(NC4CC4)nc3)CC2)C2CC2)c1` (stereo not shown) [Example 274, 3-(Cyclopropyl(1-(6-(cyclopropylamino)pyridin-3-ylsulfonyl)piperidin-4-ylideneaminooxy)methyl)benzonitrile] here?
A: ≤ 1000 nM

Q: How did the IC50 turn out when `O=S(=O)(c1ccc(OC(F)(F)F)cc1)N1CCC(=NOCc2cc(Cl)ccn2)CC1` [Example 118, 1-(4-Trifluoromethoxybenzenesulfonyl)piperidin-4-one O-(4-chloropyridin-2-ylmethyl)oxime] was run?
A: ≤ 1000 nM

Q: `O=S(=O)(c1cccc(C(F)(F)F)c1)N1CCC(=NOCc2cccc(C(F)(F)F)c2)CC1` [Example 56, 1-(3-Trifluoromethylbenzenesulfonyl)piperidin-4-one O-(3-trifluoromethylbenzyl)oxime] was tested. Which IC50 did it give?
A: ≤ 1000 nM

Q: For `CCCCc1ccc(S(=O)(=O)N2CCC(=NOCc3ccccc3)CC2)cc1` [Example 67, 1-(4-Butylbenzenesulfonyl)piperidin-4-one O-benzyloxime], which IC50 is on record?
A: ≤ 1000 nM
